Read-outs that look alike come from different tables or passages of the source.
Columns and labels:
[1] = test system: DRG neurons; assay: Ca2+ assays in DRG neurons; type: cell-based, mouse; conditions: trypsin 100 nM
Excerpt: Proteases may induce pain by activating PAR2 on nociceptors or other cell types. To determine the contribution of PAR2 on nociceptors, mice were bred expressing PAR2 flanked by LoxP sites (Par2^lox/lox) with mice expressing Cre recombinase targeted to nociceptors using the NaV1.8 promoter (Scn10a) (Stirling L. C. et al., Pain 2005, 113(1-2): 27-36). Par2-NaV1.8 mice lacked immunoreactive PAR2 in NaV1.8-positive nociceptors (FIG. 1A). Whereas 31% (20 of 65) of small-diameter (<25 μm) DRG neurons from WT mice responded to trypsin (100 nM) with increased [Ca^2+]i, only 6% (3 of 51) of neurons from Par2-NaV1.8 mice responded (FIGS. 1B, 11A, and 11B). Nociception was assessed by measuring withdrawal responses to stimulation of the plantar surface of the hindpaw with von Frey filaments. […] In Par2-NaV1.8 mice, the initial responses were maintained, but responses after 120 min were diminished. […] Trypsin-induced inflammation was markedly diminished in Par2-NaV1.8 mice.
[Ca^2+]i was measured in DRG neurons from WT and Par2-NaV1.8 mice, as described (Tsvetanova, N. G., et al., Nat. Chem. Biol. 2014, 10(12): 1061-1065). […] Fluorescence of individual neurons was measured at 340 nm and 380 nm excitation and 530 nm using a Nikon Eclipse Ti microscope with 20× magnification and a Photometrics CoolSNAP camera. Data were analyzed using Nikon Ti Element Software. […]

[2] = target: T1, human (h) PAR2 (Homo sapiens, UniProt P55085); assay: IP1 accumulation assay in KNRK-hPAR2 cells; type: cell-based
T1 construct: expressed in transfected cells; host or cells: KNRK cells (KNRK-hPAR2)
T1 sequence (P55085 26-397): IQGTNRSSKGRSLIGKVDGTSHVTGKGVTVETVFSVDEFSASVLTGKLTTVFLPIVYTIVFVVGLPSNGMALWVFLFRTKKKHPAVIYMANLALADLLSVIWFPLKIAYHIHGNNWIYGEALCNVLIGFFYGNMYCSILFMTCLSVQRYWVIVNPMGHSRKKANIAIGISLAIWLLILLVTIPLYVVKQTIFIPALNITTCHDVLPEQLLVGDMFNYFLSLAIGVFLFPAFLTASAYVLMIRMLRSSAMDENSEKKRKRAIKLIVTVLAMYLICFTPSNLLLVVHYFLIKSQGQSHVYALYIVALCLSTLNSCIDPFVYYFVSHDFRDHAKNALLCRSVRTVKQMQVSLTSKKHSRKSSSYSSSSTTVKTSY

IC50 ([2]; 2F (100 nM)-induced IP1, KNRK-hPAR2 cells, read-out: KNRK-PAR2 100 nM 2F (IC50))	IC50 ([2]; trypsin (30 nM), read-out: IC50, trypsin-induced IP1 in KNRK-hPAR2 cells)	IC50 ([2]; trypsin (30 nM), read-out: pIC50, trypsin-induced IP1 in KNRK-hPAR2 cells (converted))	Compound	small-diameter DRG neurons responding with increased [Ca2+]i, Par2-NaV1.8 mice ([1]; 3 of 51 neurons)	small-diameter DRG neurons responding with increased [Ca2+]i, WT mice ([1]; 20 of 65 neurons)
–	–	–	trypsin	6%	31%
0.666 µM	7.51 µM	7.41 µM	Cc1nc(C(=O)N2CCN(C(=O)c3cn4nc(-c5ccc(F)cc5)cc(C(C)(C)C)c4n3)C(C)(C)C2)n[nH]1 [Compound I-343, (8-(tert-butyl)-6-(4-fluorophenyl)imidazo[1,2-b]pyridazin-2-yl)(2,2-dimethyl-4-(5-methyl-1H-1,2,4-triazole-3-carbonyl)piperazin-1-yl)methanone]	–	–

— patent publication US20200383985A1, “Inhibitors of Protease Activated Receptor-2” (Endosome Therapeutics, Inc., priority 2017, published 2020)
